How the values were obtained:
[1] = tested on: oxaliplatin resistance HCT116 cells; test: Calculated oxaliplatin IC50 in oxaliplatin resistant HCT116 cells; conditions: read-out: calculated IC50; HCT116 cells rendered oxaliplatin resistant by stepwise increasing oxaliplatin over 16 passages
[2] = tested on: HCT116 cells; test: Calculated oxaliplatin IC50 in parental HCT116 cells; conditions: read-out: calculated IC50

**Q.** With `O=C1[O][Pt]2([NH][C@@H]3CCCC[C@H]3[NH]2)[O]C1=O` [oxaliplatin] as the molecule, how does the IC50 [1] read?
**A.** 5000 nM

**Q.** What about the IC50 [2] of the same molecule?
**A.** 350 nM

— patent US20130323231A1, “TREATMENT AND PROGNOSIS OF SOLID TUMOUR CANCERS” (ROYAL COLLEGE OF SURGEONS IN IRELAND, priority 2011, published 2013)
